Key:
[1] = system: HIV-RF; assay: In-vitro anti-viral test on C81-66 cells infected with HIV-RF (wells positive for HIV p24); type: cell-based; conditions: no pretreatment, number of wells positive for HIV p24 out of two replicates
Excerpt: NOTE: • 1. The results are expressed as the number of wells positive for HIV p24 (out of the two replicates at each multiplicity of infection). Thus, 2 means that both wells contained viral antigen, while 0 means no virus was present. • 2. Pretreatment means that the antibodies to Human Alpha feto protein were present during HIV virus absorption as well as afterwards. • 3. An error in diluting the antibodies was made, so that following the first three concentrations (6,2, and 0.6 percent), an extra 10 fold dilution was made, so that the next dilution was 0.02% rather than 0.2%.

[2] = molecular target: T1, HIV p24 peptide (Human immunodeficiency virus type 1 group M subtype B, UniProt P04591); assay: Binding of 3H arachidonic acid (C20:4) to peptide, free ligand removed with Lipidex 1000; conditions: 270.000 DPM 3H C20:4, overnight at 4° C, 10 mM potassium phosphate buffer pH 7.4
T1 construct: Peptide p24, 1 mg in 200 µl of an aqueous solution of acetic acid
Description: (§1) Solubilisation of the peptides: • : Peptide gp120, 1 mg in 180 µl of an aqueous solution of acetic acid and 20 µl acetonitrile • : Peptide p24, 1 mg in 200 µl of an aqueous solution of acetic acid
(§2) Incubation of 50 […] or 100 µg of each peptide or 10 µg of pure rat Alpha Feto Protein with 270.000 DPM ^3H C20:4 (SA 198 Ci/mmol), overnight at 4° C, in 0.5 ml of 10 mM potassium phosphate buffer 10mM pH 7.4.
(§3) Binding of Arachidonic Acid to peptides or protein measured after separation of the free ligand from the bound one using Lipidex 1000 (100 µl Lipidex solution 10 minutes at 4°C. The free ligand is bound to Lipidex 1000, the bound ligand to peptides and proteins remains in the supernatant after centrifugation.

[3] = molecular target: T2, HIV gp120 peptide (Human immunodeficiency virus type 1 group M subtype B, UniProt P04578); assay: as above
T2 construct: Peptide gp120, 1 mg in 180 µl of an aqueous solution of acetic acid and 20 µl acetonitrile
Description: as §1, §2, §3

[4] = Solubility of 3H C20:4 before and after addition of peptides or protein; type: physicochemical
Description: as §2
Solubility of ^3H C20:4 tested before and after addition of peptides or protein: […]

[5] = molecular target: T3, pure rat Alpha Feto Protein (Rattus norvegicus, UniProt P02773); assay: Binding of 3H arachidonic acid (C20:4) to protein, free ligand removed with Lipidex 1000; conditions: 10 µg pure rat AFP; 270.000 DPM 3H C20:4, overnight at 4° C, 10 mM potassium phosphate buffer pH 7.4
T3 sequence (P02773 25-611): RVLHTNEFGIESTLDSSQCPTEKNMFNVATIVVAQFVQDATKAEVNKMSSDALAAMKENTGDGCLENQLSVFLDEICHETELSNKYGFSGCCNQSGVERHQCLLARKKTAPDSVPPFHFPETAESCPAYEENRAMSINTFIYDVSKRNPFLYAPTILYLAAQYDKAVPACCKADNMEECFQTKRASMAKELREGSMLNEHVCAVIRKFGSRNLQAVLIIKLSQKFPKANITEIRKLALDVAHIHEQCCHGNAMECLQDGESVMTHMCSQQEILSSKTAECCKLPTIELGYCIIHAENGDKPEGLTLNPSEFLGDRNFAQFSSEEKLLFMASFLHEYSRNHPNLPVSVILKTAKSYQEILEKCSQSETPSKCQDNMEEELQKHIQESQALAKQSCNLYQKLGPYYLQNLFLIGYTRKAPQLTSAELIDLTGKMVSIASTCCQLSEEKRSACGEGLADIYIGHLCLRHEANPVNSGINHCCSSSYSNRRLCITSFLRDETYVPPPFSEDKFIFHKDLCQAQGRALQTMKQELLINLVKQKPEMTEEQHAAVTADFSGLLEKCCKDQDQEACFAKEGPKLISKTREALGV
Description: as §2, §3

T2 sequence (P04578 247-267): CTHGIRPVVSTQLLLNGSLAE

## Cc1cn([C@H]2C[C@H](N=[N+]=[N-])[C@@H](CO)O2)c(=O)[nH]c1=O [AZT]
[1]; 10 μM
  Virus Replication at a.m.i. (log) of: -1: 2
  Virus Replication at a.m.i. (log) of: -2: 1
  Virus Replication at a.m.i. (log) of: -3: 0
  Virus Replication at a.m.i. (log) of: -4: 0
  Virus Replication at a.m.i. (log) of: -5: 0
  Virus Replication at a.m.i. (log) of: -6: 0
[1]; Conc. 0.01 (μM)
  Virus Replication at a.m.i. (log) of: -1: 2
  Virus Replication at a.m.i. (log) of: -2: 2
  Virus Replication at a.m.i. (log) of: -3: 2
  Virus Replication at a.m.i. (log) of: -4: 2
  Virus Replication at a.m.i. (log) of: -5: 1
  Virus Replication at a.m.i. (log) of: -6: 0
[1]; Conc. 0.1 (μM)
  Virus Replication at a.m.i. (log) of: -1: 2
  Virus Replication at a.m.i. (log) of: -2: 2
  Virus Replication at a.m.i. (log) of: -3: 2
  Virus Replication at a.m.i. (log) of: -4: 2
  Virus Replication at a.m.i. (log) of: -5: 0
  Virus Replication at a.m.i. (log) of: -6: 0
[1]; Conc. 1 (μM)
  Virus Replication at a.m.i. (log) of: -1: 2
  Virus Replication at a.m.i. (log) of: -2: 2
  Virus Replication at a.m.i. (log) of: -3: 2
  Virus Replication at a.m.i. (log) of: -4: 1
  Virus Replication at a.m.i. (log) of: -5: 2
  Virus Replication at a.m.i. (log) of: -6: 2

## CCCCC/C=C\C/C=C\C/C=C\C/C=C\CCCC(=O)O [^3H C20:4, Arachidonic Acid]
[2]
  Binding of ^3H C20:4 to peptides or protein after Lipidex 1000 treatment: 0.8 x 10^-6 DPM/mg
[3]; 270.000 DPM 3H C20:4, overnight at 4° C, 10 mM potassium phosphate buffer pH 7.4
  Binding of ^3H C20:4 to peptides or protein after Lipidex 1000 treatment: 1.2 x 10^-6 DPM/mg
[3]; conclusion in words
  binding of C20:4: clear binding
[4]; in presence of 10 µg pure rat AFP
  Solubility of ^3H C20:4: 100%
[4]; in presence of gp120: 50µg
  Solubility of ^3H C20:4: 65%
[4]; in presence of gp120: 100µg
  Solubility of ^3H C20:4: 90%
[4]; in presence of p24 50µg
  Solubility of ^3H C20:4: 23%
[4]; in presence of p24 100µg
  Solubility of ^3H C20:4: 30%
[4]; in the presence of p24 peptide, conclusion in words
  insolubility of the Arachidonic Acid: important insolubility
[4]; without peptide or protein
  Solubility of ^3H C20:4: 70%
[5]
  Binding of ^3H C20:4 to peptides or protein after Lipidex 1000 treatment: 14.1 x 10^-6 DPM/mg

From EP0468441A1, “Use of particular compounds for manufacture of pharmaceutical formulations for metabolic treatments” (Prendergast, Patrick Thomas, priority 1990, dated 1992)
